Source: ChEMBL document CHEMBL1131942, “(3-substituted benzyl)thiazolidine-2,4-diones as structurally new antihyperglycemic agents” (Bioorg Med Chem Lett, 1999)

Legend:
Format in all cases: functional
Mus musculus [1] = test: Antihyperglycemic activity was determined in obese (ob/ob) mice by po administration at a dose of 10 mg/kg
Mus musculus [2] = test: Antihyperglycemic activity in obese mice(ob/ob) at 3 mg/kg peroral administration; settings: route oral
Mus musculus [3] = test: Antihyperglycemic activity in obese mice(ob/ob) at 1 mg/kg peroral administration; settings: route oral
Mus musculus [4] = test: In vivo decrease in glucose in obese mice(ob/ob) at 10 mg/kg/day peroral administration for 2 weeks; settings: route oral
Mus musculus [5] = test: In vivo decrease in insulin in obese mice(ob/ob) at 3 mg/kg/day peroral administration for 2 weeks; settings: route oral
Mus musculus [6] = test: In vivo decrease in glucose in obese mice(ob/ob) by 1 mg/kg/day peroral administration for 2 weeks; settings: route oral
Mus musculus [7] = test: In vivo decrease in insulin in obese mice(ob/ob) at 10 mg/kg/day peroral administration for 2 weeks; settings: route oral
Mus musculus [8] = test: In vivo decrease in insulin in obese mice(ob/ob) at 1 mg/kg/day peroral administration for 2 weeks; settings: route oral
Mus musculus [9] = test: In vivo decrease in glucose in obese mice(ob/ob) at 1 mg/kg/day peroral administration for 2 weeks; settings: route oral
Mus musculus [10] = test: In vivo decrease in glucose in obese mice(ob/ob) by 10 mg/kg/day peroral administration for 2 weeks; settings: route oral
Mus musculus [11] = test: In vivo decrease in glucose in obese mice(ob/ob) by 0.3 mg/kg/day peroral administration for 2 weeks; settings: route oral
Mus musculus [12] = test: In vivo decrease in glucose in obese mice(ob/ob) at 3 mg/kg/day peroral administration for 2 weeks; settings: route oral
Mus musculus [13] = test: In vivo decrease in triglyceride in obese mice(ob/ob) by 3 mg/kg/day peroral administration for 2 weeks; settings: route oral
Mus musculus [14] = test: In vivo decrease in insulin in obese mice(ob/ob) at 0.3 mg/kg/day peroral administration for 2 weeks; settings: route oral
Mus musculus [15] = test: In vivo decrease in triglyceride in obese mice(ob/ob) by 0.3 mg/kg/day peroral administration for 2 weeks; settings: route oral

COc1ccc(CC2SC(=O)NC2=O)cc1C(=O)NCCc1ccc(C(F)(F)F)cc1 (configuration not stated)
Decrease in blood glucose (Mus musculus [1]): 3%

COc1ccc(C(=O)NCc2ccc(C(F)(F)F)cc2)cc1CC1SC(=O)NC1=O (configuration not stated)
Decrease in blood glucose (Mus musculus [1]): 3%

CC(C)Oc1ccc(CC2SC(=O)NC2=O)cc1C(=O)NCc1ccc(C(F)(F)F)cc1 (configuration not stated)
Decrease in blood glucose (Mus musculus [1]): 45%

COc1ccc(CC2SC(=O)NC2=O)cc1C(=O)NCc1cc(C(F)(F)F)cc(C(F)(F)F)c1 (configuration not stated)
Decrease in blood glucose (Mus musculus [1]): 30%

COc1ccc(C2SC(=O)NC2=O)cc1C(=O)NCc1ccc(C(F)(F)F)cc1 (configuration not stated)
Decrease in blood glucose (Mus musculus [2]): 36% | Decrease in blood glucose (Mus musculus [3]): 27% | Decrease in blood glucose (Mus musculus [1]): 48%

COc1ccc(CC2SC(=O)NC2=O)cc1C(=O)NCc1ccc(C(C)(C)C)cc1 (configuration not stated)
Decrease in blood glucose (Mus musculus [1]): 5%

O=C1NC(=O)C(Cc2ccc(O)c(C(=O)NCc3ccc(C(F)(F)F)cc3)c2)S1 (configuration not stated)
Decrease in blood glucose (Mus musculus [2]): 12% | Decrease in blood glucose (Mus musculus [3]): 7% | Decrease in blood glucose (Mus musculus [1]): 34%

COc1ccc(CC2SC(=O)NC2=O)cc1C(=O)NCc1ccc(N(C)C)cc1 (configuration not stated)
Decrease in blood glucose (Mus musculus [1]): 12%

CCOc1ccc(CC2SC(=O)NC2=O)cc1C(=O)NCc1ccc(C(F)(F)F)cc1 (configuration not stated)
Decrease in blood glucose (Mus musculus [1]): 34%

Cc1ccc(CC2SC(=O)NC2=O)cc1C(=O)NCc1ccc(C(F)(F)F)cc1 (configuration not stated)
Decrease in blood glucose (Mus musculus [1]): 16%

COc1ccc(CCC2SC(=O)NC2=O)cc1C(=O)NCc1ccc(C(F)(F)F)cc1 (configuration not stated)
Decrease in blood glucose (Mus musculus [2]): 20% | Decrease in blood glucose (Mus musculus [3]): 15% | Decrease in blood glucose (Mus musculus [1]): 43%

COc1ccc(CC2SC(=O)NC2=O)cc1C(=O)NCc1ccccc1C(F)(F)F (configuration not stated)
Decrease in blood glucose (Mus musculus [1]): 4%

COc1ccc(CC2SC(=O)NC2=O)cc1C(=O)NCc1ccc(F)cc1 (configuration not stated)
Decrease in blood glucose (Mus musculus [1]): 28%

COc1ccc(CC2SC(=O)NC2=O)cc1C(=O)NCc1ccccc1 (configuration not stated)
Decrease in blood glucose (Mus musculus [2]): 31% | Decrease in blood glucose (Mus musculus [3]): 19% | Decrease in blood glucose (Mus musculus [1]): 37%

COc1c(CC2SC(=O)NC2=O)cccc1C(=O)NCc1ccc(C(F)(F)F)cc1 (configuration not stated)
Decrease in blood glucose (Mus musculus [1]): 0%

COc1ccc(CC2SC(=O)NC2=O)cc1C(=O)NCc1ccc(C(F)(F)F)cc1 (configuration not stated)
Rate of decrease (Mus musculus [4]): 100% | Rate of decrease (Mus musculus [5]): 83% | Rate of decrease (Mus musculus [6]): 80% | Rate of decrease (Mus musculus [7]): 87% | Decrease in blood glucose (Mus musculus [2]): 53% | Decrease in blood glucose (Mus musculus [3]): 35% | Rate of decrease (Mus musculus [8]): 59% | Rate of decrease (Mus musculus [9]): 78% | Rate of decrease (Mus musculus [10]): 130% | Rate of decrease (Mus musculus [11]): 77% | Rate of decrease (Mus musculus [12]): 95% | Rate of decrease (Mus musculus [13]): 122% | Rate of decrease (Mus musculus [14]): 55% | Rate of decrease (Mus musculus [15]): 67% | Decrease in blood glucose (Mus musculus [1]): 58%

COc1ccc(CCCC2SC(=O)NC2=O)cc1C(=O)NCc1ccc(C(F)(F)F)cc1 (configuration not stated)
Decrease in blood glucose (Mus musculus [2]): 29% | Decrease in blood glucose (Mus musculus [3]): 10% | Decrease in blood glucose (Mus musculus [1]): 39%

COc1ccc(CC2SC(=O)NC2=O)cc1C(=O)NCc1ccc(OC(F)(F)F)cc1 (configuration not stated)
Decrease in blood glucose (Mus musculus [1]): 34%

O=C1NC(=O)C(Cc2ccc(F)c(C(=O)NCc3ccc(C(F)(F)F)cc3)c2)S1 (configuration not stated)
Decrease in blood glucose (Mus musculus [1]): 50%

COc1ccc(CC2SC(=O)NC2=O)cc1C(=O)NCc1cccc(C(F)(F)F)c1 (configuration not stated)
Decrease in blood glucose (Mus musculus [1]): 41%

COc1ccc(CNC(=O)c2cc(CC3SC(=O)NC3=O)ccc2OC)cc1OC (configuration not stated)
Decrease in blood glucose (Mus musculus [1]): 30%

COc1ccc(CC2SC(=O)NC2=O)cc1C(=O)Nc1ccc(C(C)(C)C)cc1 (configuration not stated)
Decrease in blood glucose (Mus musculus [1]): 17%

COc1ccc(CNC(=O)c2cc(CC3SC(=O)NC3=O)ccc2OC)cc1 (configuration not stated)
Decrease in blood glucose (Mus musculus [1]): 21%

COc1ccc(CC2SC(=O)NC2=O)cc1C(=O)NCc1ccc(C)cc1 (configuration not stated)
Decrease in blood glucose (Mus musculus [1]): 30%

CCN(Cc1ccc(C(F)(F)F)cc1)C(=O)c1cc(CC2SC(=O)NC2=O)ccc1OC (configuration not stated)
Decrease in blood glucose (Mus musculus [1]): 31%

CCc1ccc(CCOc2ccc(CC3SC(=O)NC3=O)cc2)nc1 (configuration not stated) [PIOGLITAZONE]
Rate of decrease (Mus musculus [4]): 75% | Rate of decrease (Mus musculus [5]): 43% | Rate of decrease (Mus musculus [7]): 41% | Rate of decrease (Mus musculus [10]): 99% | Rate of decrease (Mus musculus [12]): 64% | Rate of decrease (Mus musculus [13]): 85% | Decrease in blood glucose (Mus musculus [1]): 14%

Cc1c(C)c2c(c(C)c1O)CCC(C)(COc1ccc(CC3SC(=O)NC3=O)cc1)O2 (configuration not stated) [TROGLITAZONE]
Decrease in blood glucose (Mus musculus [1]): 9%
